Laboratory results reported in patent US7858796B2, “Chemical compounds” (Glaxo Group Limited, priority 2004, dated 2010).

Legend:
[1] = target: T1, Recombinant human IKKβ (residues 1-737) (Homo sapiens, UniProt O14920); experiment: IKK2 Assay (TR-FRET); format: biochemical; conditions: IKK2 5 nM, GST-IκBα 25 nM, ATP 1 μM, 30 minutes at room temperature, read-out: pIC50 against IKK2 (converted)
T1 construct: Recombinant human IKKβ (residues 1-737); GST (C); made in house
T1 sequence (O14920 1-737): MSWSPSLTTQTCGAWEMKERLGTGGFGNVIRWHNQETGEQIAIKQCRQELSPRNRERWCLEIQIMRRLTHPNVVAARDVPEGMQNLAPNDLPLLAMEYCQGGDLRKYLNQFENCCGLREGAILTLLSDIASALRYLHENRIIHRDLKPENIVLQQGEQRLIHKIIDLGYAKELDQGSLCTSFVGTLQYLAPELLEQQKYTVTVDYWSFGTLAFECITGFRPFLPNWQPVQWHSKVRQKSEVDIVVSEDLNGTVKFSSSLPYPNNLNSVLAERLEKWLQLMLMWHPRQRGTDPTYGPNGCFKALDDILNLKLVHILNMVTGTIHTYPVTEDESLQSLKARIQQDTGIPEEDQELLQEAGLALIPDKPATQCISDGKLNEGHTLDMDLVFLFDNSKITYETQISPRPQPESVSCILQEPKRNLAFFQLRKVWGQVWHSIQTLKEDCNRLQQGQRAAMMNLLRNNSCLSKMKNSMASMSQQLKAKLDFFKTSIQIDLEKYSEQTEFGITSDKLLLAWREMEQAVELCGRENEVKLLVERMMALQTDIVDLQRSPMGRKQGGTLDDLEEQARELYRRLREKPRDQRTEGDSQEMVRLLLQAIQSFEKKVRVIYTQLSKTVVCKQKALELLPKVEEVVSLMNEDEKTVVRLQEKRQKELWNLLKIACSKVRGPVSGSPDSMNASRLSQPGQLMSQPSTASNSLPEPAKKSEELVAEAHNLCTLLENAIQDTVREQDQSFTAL
Experimental: Recombinant human IKKβ (residues 1-737) was expressed in baculovirus as a C-terminal GST-tagged fusion protein, and its activity was assessed using a time-resolved fluorescence resonance energy transfer (TR-FRET) assay. Briefly, IKK2 (5 nM final) diluted in assay buffer (50 mM HEPES, 10 mM MgCl2, 1 mM CHAPS pH 7.4 with 1 mM DTT and 0.01% w/v BSA) was added to wells containing various concentrations of compound or DMSO vehicle (3% final). The reaction was initiated by the addition of GST-IκBα substrate (25 nM final)/ATP (1 μM final), in a total volume of 30 μl. The reaction was incubated for 30 minutes at room temperature, then terminated by the addition of 15 μl of 50 mM EDTA. Detection reagent (15 μl) in buffer (100 mM HEPES pH 7.4, 150 mM NaCl and 0.1% w/v BSA) containing antiphosphoserine-IκBα-32/36 monoclonal antibody 12C2 (Cell Signalling Technology, Beverly Mass., USA) labelled with W-1024 europium chelate (Wallac OY, Turku, Finland), and an APC-labelled anti-GST antibody (Prozyme, San Leandro, Calif., USA) was added and the reaction was further incubated for 60 minutes at room temperature. The degree of phosphorylation of GST-IκBα was measured using a Packard Discovery plate reader (Perkin-Elmer Life Sciences, Pangbourne, UK) as a ratio of specific 665 nm energy transfer signal to reference europium 620 nm signal.

[2] = system: human monocyte stimulated cytokine production (TNF-α); experiment: Monocyte Assay (LPS-stimulated TNF-α production); format: cell-based; conditions: human CD14+ monocytes, 200 ng/mL LPS, 24 hrs, TNF-α by ELISA
Experimental: Effect of IKK-β inhibition on human monocyte stimulated cytokine production was assessed as follows: Monocytes were isolated from heparinized whole blood by Ficoll gradient, followed by purification of CD14+ cells using MACS magnetic cell separation beads. Isolated monocytes were then adhered to 96-well culture plates at 1×10^6 cells/mL in RPMI 1640 10% FBS (JRH Biosciences, Lenexa Kans.) for 2 h. to further enrich the monocyte population. The media was then removed, cells washed once with RPMI 1640, and 0.125 mL RPMI 1640 10% FBS was added to the wells. Test compounds are added to the wells 30 minutes prior to stimulation with a final vehicle concentration of 0.1% DMSO. Monocytes were activated by the addition of 200 ng/mL endotoxin (LPS; E. coli serotype 026:B6) (Sigma, St. Louis, Mo.) and incubated for 24 hrs at 37 C. Cell-free supernates were analyzed by ELISA for TNF-α using Pharmingen matched pair Abs. Viability of the cells was determined by10% trypan blue exclusion.

SMILES	IC50 [1] [µM]	IC50 [2] [µM]
NC(=O)c1cc(-c2ccccc2)cc2c(C3CCN(S(=O)(=O)CCOCC4CCOC4)CC3)c[nH]c12 (centres unmarked) [Example 200]	≤ 10	< 10
NC(=O)c1cc(-c2ccccc2)cc2c(C3CCN(S(=O)(=O)CCNCC4CCCCC4)CC3)c[nH]c12 [Example 38]	≤ 10	–
COCCCS(=O)(=O)N1CCC(c2c[nH]c3c(C(N)=O)cc(-c4cccc(CNCCN5CCCCC5)c4)cc23)CC1 [Example 249]	> 25.1	–
COCCCS(=O)(=O)N1CCC(c2c[nH]c3c(C(N)=O)cc(-c4ccccc4)cc23)CC1 [Example 160, 3-(1-{[3-(methyloxy)propyl]sulfonyl}-4-piperidinyl)-5-phenyl-1H-indole-7-carboxamide]	–	< 10
CC(C)NCc1cccc(-c2cc(C(N)=O)c3[nH]cc(C4CCN(S(=O)(=O)CCCN(C)C)CC4)c3c2)c1 [Example 214, 3-(1-{[3-(dimethylamino)propyl]sulfonyl}-4-piperidinyl)-5-(3-{[(1-methylethyl)amino]methyl}phenyl)-1H-indole-7-carboxamide]	–	< 10
NCCS(=O)(=O)N1CCC(c2c[nH]c3c(C(N)=O)cc(-c4ccccc4)cc23)CC1 [Example 1, 3-{1-[(2-aminoethyl)sulfonyl]-4-piperidinyl}-5-phenyl-1H-indole-7-carboxamide]	–	< 10
CC1CCCN1CCCS(=O)(=O)N1CCC(c2c[nH]c3c(C(N)=O)cc(-c4cccs4)cc23)CC1 (centres unmarked) [Example 12, 3-(1-{[3-(2-methyl-1-pyrrolidinyl)propyl]sulfonyl}-4-piperidinyl)-5-(2-thienyl)-11 indole-7-carboxamide]	–	< 10
CCOCCCS(=O)(=O)N1CCC(c2c[nH]c3c(C(N)=O)cc(-c4cccs4)cc23)CC1 [Example 264, 3-(1-{[3-(ethyloxy)propyl]sulfonyl}-4-piperidinyl)-5-(2-thienyl)-1H-indole-7-carboxamide]	–	< 10
CN(C)CCCS(=O)(=O)N1CCC(c2c[nH]c3c(C(N)=O)cc(-c4ccsc4)cc23)CC1 [Example 9, 3-(1-{[3-(dimethylamino)propyl]sulfonyl}-4-piperidinyl)-5-(3-thienyl)-1H-indole-7-carboxamide]	–	< 10
Cc1nc(S(=O)(=O)N2CCC(c3c[nH]c4c(C(N)=O)cc(-c5ccccc5)cc34)CC2)cn1C [Example 275, 3-{1-[(1,2-dimethyl-1H-imidazol-4-yl)sulfonyl]-4-piperidinyl}-5-phenyl-1H-indole-7-carboxamide]	–	< 10
NC(=O)c1cc(-c2ccc(CN3CCCC3)s2)cc2c(C3CCN(S(=O)(=O)CCCN4CCCC4)CC3)c[nH]c12 [Example 64, 5-[5-(1-pyrrolidinylmethyl)-2-thienyl]-3-(1-{[3-(1-pyrrolidinyl)propyl]sulfonyl}-4-piperidinyl)-1H-indole-7-carboxamide]	–	< 10
CN(C)CCCS(=O)(=O)N1CCC(c2c[nH]c3c(C(N)=O)cc(-c4ccccc4)cc23)CC1 [Example 3, 3-(1-{[3-(dimethylamino)propyl]sulfonyl}-4-piperidinyl)-5-phenyl-1H-indole-7-carboxamide]	–	< 10
NC(=O)c1cc(-c2cccs2)cc2c(C3CCN(S(=O)(=O)CCCN4CCOCC4)CC3)c[nH]c12 [Example 73, 3-(1-{[3-(4-morpholinyl)propyl]sulfonyl}-4-piperidinyl)-5-(2-thienyl)-1H-indole-7-carboxamide]	–	< 10
